Measured values taken from patent US6958141B2, “Rhenium and technetium complexes containing a hypoxia-localizing moiety” (Bracco International B.V., priority 1991, dated 2005).

Assays:
[1] = test system: Isolated Perfused Rat Heart; assay: Isolated perfused heart studies (Langendorff), retention of tracer; design: species or system male Sprague Dawley rats; conditions: radioactivity 40 minutes after end of 20 minute infusion divided by peak, n=4
Description: Hearts were excised from male Sprague Dawley rats (275-325 g) and were perfused retrogradely using the Langendorff method (O. Langendorff, Pfleugers Arch. ges. Physiol, 61, 291, […]) with modifications described previously (W. Rumsey, D. F. Wilson and M. Erecinska, Am. J. Physiol., 253 (Heart Circ. Physiol. 22): H1098, 1987) in the isolated state at 37° C. with Krebs-Henseleit buffer. The perfusate contained [in mM] NaCl, KCl [4.7], CaCl2 [1.8], Na2EDTA [0.5], KH2PO4 [1.2], MgSO4 [1.2], NaHCO3 [25], glucose, pyruvate [0.2], and insulin (12 IU/L) and was equilibrated with O2:CO2 (95:5) (global normoxia) or N2:CO2 (95:5) (global hypoxia). The hearts were paced continuously at 5 Hz. […]
For determination of oxygen consumption, a cannula was placed in the right ventricle via the pulmonary artery. A pump removed a small fraction of the coronary effluent at 1 mL/min., and its oxygen concentration was monitored continuously by an in-line Clark-type electrode. […] Coronary flow was measured by collecting the effluent from the right and left pulmonary arteries in a 10 mL graduated cylinder. Oxygen consumption was calculated from the product of the influent-effluent oxygen concentration difference and the coronary flow. During perfusion with hypoxic medium, only the effluent oxygen concentration was recorded. […]

[2] = test system: Calcium-tolerant ventricular myocytes; assay: Isolated cardiac myocyte studies, retention of radioactivity; type: cell-based, male Sprague Dawley rats; conditions: for Oil: dibutyl phthalate layer; for Oil / PCA Pellet / Cell Pellet: means ±S.E.M.; for PCA Pellet: perchloric acid-precipitated pellet; for Cell Pellet: whole cells passed through dibutyl phthalate; for percentage of activity associated with the protein/membrane fragments: cells disrupted by freezing and thawing (3×)
Text: Calcium-tolerant ventricular myocytes were isolated from hearts of male Sprague Dawley rats (200 g) according to the procedure of Wittenberg and Robinson (B. A. Wittenberg and T. F. Robinson, Cell Tissue Res., 216: 231, 1981) with modifications described previously (W. Rumsey, C. Schlosser, E. M. Nuutinen, M. Robiolio and D. F. Wilson, J. Biol. Chem., 265 (26): 15392, 1990). Cells were used immediately following morphological analysis (using a hemocytometer) of viability and were maintained at 37° C. during the experiments. The number of quiescent, rod shaped cells ranged from 70-90% within a total population of 5-9×10^6 cells.
The isolated myocytes were maintained in either a normoxic, hypoxic or anoxic state. Hypoxia was induced by providing an atmosphere of argon atop of the cells and sealing the flask during the incubation period. Glucose oxidase plus catalase (5/5 mg) was added to argon treated cells to provide anoxia. Cells were suspended (6.5-7.5×10^4 cells/ml) in isolation media and aliquots were added to incubation vials maintained at 37° C.
After incubation with a test compound, myocytes were deproteinated with 1% ice-cold perchloric acid and centrifuged at 12,000 rpm for 30 sec. The supernatent was separated from the pellet and each counted using a LKB 1282 gamma counter. Alternatively, myocytes were separated from the suspending media by passing the cells through 99% dibutyl phthalate by centrifugation at 12,000 rpm for 30 sec. The three phases were separated and counted as described above. Results for the Tc-99m complex of the compound in Example 1 are given below:
Values represent means ±S.E.M. for the number of experiments noted in the parentheses. The values are the percent of total radioactivity represented by each case. PCA pellet=perchloric acid-precipitated pellet which represents the activity associated with proteins/membranes. Cell pellet=whole cells passed through a layer of dibutyl phthalate (oil).
Several Tc-99m complexes were examined in isolated myocytes using the protocol described above. The percentage of activity retained in the cell pellet was determined under anoxic and normoxic states.

[3] = test system: Bovine brain microvessel endothelial cells; assay: Ability to cross endothelial monolayers (permeability index); type: in vitro ADME; conditions: permeability index from PSe, endothelial monolayer, compared with ^3H-water and ^14C-sucrose, first 10 minutes, 37° C.
Description: The model consists of a cultured monolayer of bovine brain endothelial cells, which form tight intercellular junctions. […] The rate of transit is compared with ^3H2O (a highly permeable tracer) and ^14C-sucrose (a non-permeable tracer).
Bovine brain microvessel endothelial cells were isolated using a modification of the Audus-Borchardt method (K. L. Audus et al., Ann. New York Acad. Sci., 1988; 9-18). […]
This system was placed into a 37° C., 5% CO2 incubator which contains an orbiting tissue culture plate shaker for agitation and 10 μL samples, from both inside (donor) and outside (acceptor) compartments, were taken simultaneously from a set of 4 Anocell inserts. These samples were counted first in a Gamma counter then, after 72 hours, in a scintillation counter with dual channel capabilities. The fraction of radioactivity transported from the donor to the acceptor wells at each time point over the first 10 minutes of the study was calculated. The average percent of radioactivity transported was plotted vs. time and the slope was estimated by linear regression analysis. […] The permeability index (Pi) is calculated using the PSe for each agent as follows: [formula]

[4] = Anoxia (Glucose Oxidase) (n = 4)
[5] = isolated myocytes, several Tc-99m complexes
[6] = separate study, number of experiments in parentheses

[^99mTc]Oxo[[3,3,9,9-tetramethyl-1-(2-nitro-1H-imidazo-1-yl)-4,8-diazaundecane-2,10-dione dioximato]-(3-)-N,N′,N″,N′″]technetium(V) [^99mTc complex from ligand in Ex. 1]
% Retention of Tracer in the Isolated Perfused Rat Heart, Hypoxia ([1]; N2:CO2 (95:5)): 65.3 ± 3%
% Retention of Tracer in the Isolated Perfused Rat Heart, Normoxia ([1]; O2:CO2 (95:5)): 33.5 ± 2.5%
Anoxia/normoxia [2]: 2.7
Anoxia/normoxia ratio [2]: 2.3
Hypoxia/normoxia [2]: 1.7
Oil [2, 4]: 9.0 ± 2.6% of total radioactivity
PCA Pellet [2, 4]: 55.5 ± 5.8% of total radioactivity
Cell Pellet [2, 4]: 48.8 ± 4.2% of total radioactivity
Oil ([2]; Hypoxia (Argon) (n = 4)): 20.1 ± 5.3% of total radioactivity
PCA Pellet ([2]; Hypoxia (Argon) (n = 4)): 48.5 ± 3.4% of total radioactivity
Cell Pellet ([2]; Hypoxia (Argon) (n = 4)): 36.9 ± 8.8% of total radioactivity
Oil ([2]; Normoxia (n = 5)): 22.8 ± 2.2% of total radioactivity
PCA Pellet ([2]; Normoxia (n = 5)): 40.5 ± 2.7% of total radioactivity
Cell Pellet ([2]; Normoxia (n = 5)): 23.2 ± 3.7% of total radioactivity
percentage of activity associated with the protein/membrane fragments ([2]; anoxic (glucose oxidase), n=3): 25.3±2.5%
percentage of activity associated with the protein/membrane fragments ([2]; normoxic, n=3): 23.3±0.8%
% in Cell Pellet, Anoxia [2, 5]: 53.0 ± 2.2%
% in Cell Pellet, Normoxia [2, 5]: 24.1 ± 2.3%
effect of FCCP (uncoupler) on retention ([2]; normoxic cells): had no effect on the retention
effect of cyanide on retention ([2]; normoxic cells, n=3): had no effect on retention in normoxic cells
uptake in isolated myocytes, Anoxia [2, 6]: 48 ± 6 (3)
uptake in isolated myocytes, Hypoxia [2, 6]: 30 ± 7 (3)
uptake in isolated myocytes, Normoxia [2, 6]: 18 ± 1 (3)
Pi [3]: 63.2
